pEC50: −log10 of the molar value.

Usually pEC50 stands for −log10 of the EC50, conventionally taken in molar units.

Assay [1] has as its target T1, HER2 wildtype (WT) protein (Homo sapiens, UniProt P04626).
T1 construct: BT474 and N87 cell lines which endogenously overexpress the HER2 wildtype (WT) protein; endogenous in cells; host or cells: BT474, N87
Description: HER2 signaling (pHER2 Tyr1248/total HER2 MSD) in BT474 cells. Type of assay: cell-based. The conditions noted are these: 1.5 hr compound, 1% FBS. As for the experimental part: (§1) In addition to the engineered cell lines, the following cell lines were used: BT474 (human breast carcinoma), N87 (human gastric carcinoma), NCI-H1781 (human lung adenocarcinoma), and A431 (human epidermoid carcinoma); all cell lines were obtained from the American Type Culture Collection (ATCC, Manassas, VA). NCI-H1781 were grown in complete RPMI 1640 (Life Technologies, Carlsbad, CA) supplemented with 15% fetal bovine serum (FBS, Life Technologies, Carlsbad, CA) and 1% Penicillin-Streptomycin (P/S, Life Technologies, Carlsbad, CA). N87 cells were grown in complete RPMI 1640 supplemented with 10% FBS and 1% P/S. BT474 and A431 cells were grown in DMEM (Life Technologies, Carlsbad, CA) supplemented with 10% FBS and 1% P/S. All cells were maintained and propagated in a humidified 5% CO2 incubator at 37° C.
HER2 signaling was assessed in BT474 and N87 cell lines which endogenously overexpress the HER2 wildtype (WT) protein, in NCI-H1781 cells which endogenously expresses a HER2 mutant protein containing a VC insertion in the kinase domain (HER2VC or G776delinsVC), and in engineered cell lines transduced to express the Her2 mutant protein containing the YVMA insertion (Hek293-HER2YVMA and BEAS2B-HER2YVMA).
BT474, N87, and NCI-H1781 were plated in 96-well tissue-culture treated plates (Corning Costar, Sigma-Aldrich) in full media and incubated overnight. Hek293-HER2YVMA and BEAS2B-HER2YVMA cells were plated in 96-well poly-D-lysine treated plates (BD Bioscience, San Jose, CA). For treatment with test compounds, the media was replaced with corresponding low serum media (1% FBS) containing test compound at 1.1, 0.37, 0.12, 0.041, 0.014, 0.005, 0.0014, 0.0005 μM or DMSO control (0.1%). Cells were incubated with compound for 1.5 hr at 37° C. After compound treatment, the media was removed and cells were lysed for 30 min on ice in complete MSD lysis buffer (prepared using MSD base lysis buffer (Meso-Scale Discovery) supplemented with cOmplete, EDTA-free Protease inhibitor cocktail (Roche), Phosphatase Inhibitor Cocktails 2 and 3 (Sigma-Aldrich), and 1 mM PMSF (Sigma-Aldrich)). Lysates were stored at −70° C. until further analysis.
HER2 signaling was evaluated using phospho (Tyr1248)/total ErbB2 whole cell lysate MSD plates (Meso-Scale Discovery, Gaithersburg, MD). The phospho HER2 signal was normalized to total HER2 for each sample; results are reported as % DMSO control. The normalized data was fitted using a sigmoidal curve analysis program (Graph Pad Prism version 6) with variable Hill slope to determine EC50 values.
The HER2 signaling results are provided in Table 4, under columns titled “BT474-pHER2 EC50”, “N87-pHER2 EC50”, and “NCI-H1781-pHER2 EC50”. Hek293-HER2YVMA ins fall under the heading “HEKYVMA-pHER2 EC50”, Ba/F3 HER2YVMA fall under the heading “Ba/F3 YVMA-pHER2 EC50” and BEAS2B-HER2YVMA fall under the heading “BEAS2B YVMA-pHER2 EC50”.

The next assay concerns the target EGFR (Homo sapiens, UniProt P00533). Briefly: EGFR signaling (pEGFR Tyr1068/total EGFR MSD) in A431 cells. Type of assay: cell-based. Details: endogenous in cells; host or cells: A431, N87. The conditions noted are these: for pEC50: A431 cells, read-out: A431 pEGFR EC50; for Selectivity A431 EC50/BT474 EC50: ratio A431 pEGFR EC50 to BT474 pHER2 EC50; for Selectivity A431 EC50/HEKYVMA EC50: ratio A431 pEGFR EC50 to HEK YVMA pHER2 EC50. The procedure: as §1
A431 Cells were plated in 96-well tissue-culture treated plates in full media for 6 h, then starved with media containing 0.1% FBS for overnight. Media was replaced with low serum media (1% FBS) containing compound at 10, 3.3, 1.1, 0.37, 0.12, 0.041, 0.014, 0.005 μM or DMSO control (0.1%). Cells were incubated for 1.5 hr, then stimulated with 100 ng/mL human EGF (PeproTech, Rocky Hill, NJ) for 10 minutes. Cells were washed with cold PBS, and lysed for 30 min on ice in complete MSD lysis buffer (prepared as described in HER2 Signaling Method); lysates were stored at −70° C. until further analysis. EGFR signaling was evaluated using phospho (Tyr 1068)/total EGFR whole cell lysate kit (Meso-Scale Discovery, Gaithersburg, MD). The phospho EGFR signal was normalized to total EGFR for each sample; results are reported as % DMSO control. The normalized data was fitted using a sigmoidal curve analysis program (Graph Pad Prism version 6) with variable Hill slope to determine EC50 values. The results are provided in Table 4, under column titled “A431-pEGFR EC50”.

T1 sequence (P04626 23-1255): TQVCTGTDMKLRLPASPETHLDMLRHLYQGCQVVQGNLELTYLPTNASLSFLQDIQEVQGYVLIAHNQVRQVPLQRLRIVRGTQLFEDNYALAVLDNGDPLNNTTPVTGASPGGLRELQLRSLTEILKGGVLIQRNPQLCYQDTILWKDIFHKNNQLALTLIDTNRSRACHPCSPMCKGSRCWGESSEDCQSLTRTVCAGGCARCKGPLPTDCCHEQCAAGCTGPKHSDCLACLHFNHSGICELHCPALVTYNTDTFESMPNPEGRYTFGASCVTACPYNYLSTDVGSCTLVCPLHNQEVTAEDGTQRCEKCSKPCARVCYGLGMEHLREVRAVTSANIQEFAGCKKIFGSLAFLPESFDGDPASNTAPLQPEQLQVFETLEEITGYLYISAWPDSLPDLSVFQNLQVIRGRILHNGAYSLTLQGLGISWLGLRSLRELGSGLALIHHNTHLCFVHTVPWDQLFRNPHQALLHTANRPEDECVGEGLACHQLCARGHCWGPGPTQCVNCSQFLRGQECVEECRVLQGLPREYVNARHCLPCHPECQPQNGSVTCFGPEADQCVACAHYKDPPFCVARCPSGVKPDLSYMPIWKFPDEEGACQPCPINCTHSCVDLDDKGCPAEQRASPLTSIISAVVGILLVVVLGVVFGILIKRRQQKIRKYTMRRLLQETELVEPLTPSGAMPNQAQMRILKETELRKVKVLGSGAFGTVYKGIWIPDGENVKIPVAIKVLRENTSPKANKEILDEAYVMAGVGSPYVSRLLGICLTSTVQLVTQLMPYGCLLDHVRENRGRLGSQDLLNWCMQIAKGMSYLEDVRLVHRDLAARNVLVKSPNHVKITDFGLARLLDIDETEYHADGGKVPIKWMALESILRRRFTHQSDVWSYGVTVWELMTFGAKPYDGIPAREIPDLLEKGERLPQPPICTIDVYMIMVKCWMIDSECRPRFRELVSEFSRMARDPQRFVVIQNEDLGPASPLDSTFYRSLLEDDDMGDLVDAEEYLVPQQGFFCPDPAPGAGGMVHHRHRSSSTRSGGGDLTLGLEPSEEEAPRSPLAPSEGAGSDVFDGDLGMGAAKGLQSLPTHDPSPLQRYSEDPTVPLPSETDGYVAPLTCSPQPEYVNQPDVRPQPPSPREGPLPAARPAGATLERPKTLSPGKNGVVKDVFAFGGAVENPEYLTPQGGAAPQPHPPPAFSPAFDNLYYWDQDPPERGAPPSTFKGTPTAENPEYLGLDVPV
Chain of EGFR (P00533 25-1210): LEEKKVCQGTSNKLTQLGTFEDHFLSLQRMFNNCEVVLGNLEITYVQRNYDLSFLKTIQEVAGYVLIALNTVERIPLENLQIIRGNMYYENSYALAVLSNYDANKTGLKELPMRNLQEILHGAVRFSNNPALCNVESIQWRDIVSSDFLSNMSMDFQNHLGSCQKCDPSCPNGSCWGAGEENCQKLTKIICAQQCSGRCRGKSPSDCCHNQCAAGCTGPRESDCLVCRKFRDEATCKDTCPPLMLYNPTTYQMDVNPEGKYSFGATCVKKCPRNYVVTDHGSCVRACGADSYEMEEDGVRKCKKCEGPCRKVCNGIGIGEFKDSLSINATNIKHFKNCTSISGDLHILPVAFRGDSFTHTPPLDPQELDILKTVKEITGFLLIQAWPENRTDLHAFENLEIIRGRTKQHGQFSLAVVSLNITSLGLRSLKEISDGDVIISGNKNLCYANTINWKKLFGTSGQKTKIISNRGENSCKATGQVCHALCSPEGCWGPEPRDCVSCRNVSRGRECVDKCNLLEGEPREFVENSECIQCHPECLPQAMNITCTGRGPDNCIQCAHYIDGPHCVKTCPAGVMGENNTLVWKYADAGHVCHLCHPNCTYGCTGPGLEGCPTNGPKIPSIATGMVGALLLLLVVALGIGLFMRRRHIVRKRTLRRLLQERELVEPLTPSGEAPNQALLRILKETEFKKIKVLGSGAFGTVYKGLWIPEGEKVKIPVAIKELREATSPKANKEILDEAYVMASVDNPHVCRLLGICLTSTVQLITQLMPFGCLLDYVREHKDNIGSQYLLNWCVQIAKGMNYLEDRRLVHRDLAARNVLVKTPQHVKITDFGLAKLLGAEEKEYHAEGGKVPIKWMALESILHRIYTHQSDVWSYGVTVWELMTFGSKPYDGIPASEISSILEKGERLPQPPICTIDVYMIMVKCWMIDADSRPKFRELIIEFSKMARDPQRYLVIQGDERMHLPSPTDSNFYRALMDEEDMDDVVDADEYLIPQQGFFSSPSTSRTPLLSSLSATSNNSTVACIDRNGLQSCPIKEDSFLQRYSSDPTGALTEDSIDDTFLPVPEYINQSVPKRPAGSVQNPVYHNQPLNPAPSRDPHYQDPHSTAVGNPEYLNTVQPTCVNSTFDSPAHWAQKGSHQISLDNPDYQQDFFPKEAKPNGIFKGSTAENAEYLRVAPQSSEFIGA

In assay [1], `Cc1cc(Nc2ncnc3sc4c(c23)CCN(C(=O)/C=C/CN(C)C)CC4)ccc1Oc1ccn2ccnc2c1` [Compound 172, (E)-4-(Dimethylamino)-1-(4-((4-(imidazo[1,2-a]pyridin-7-yloxy)-3-methylphenyl)amino)-8,9-dihydro-5H-pyrimido[5′,4′:4,5]thieno[2,3-d]azepin-7(6H)-yl)but-2-en-1-one] had a negative logarithm of the EC50 (pEC50) of more than 7.00. Also, on EGFR, the negative logarithm of the EC50 (pEC50) was 5.00 to 6.00; the “Selectivity A431 EC50/BT474 EC50” value is “B (B: ≥ 20 and < 100)”; the “Selectivity A431 EC50/HEKYVMA EC50” value is “C (C: ≥ 10 and < 20)”.
`Cc1ccc(Oc2ccc(Nc3ncnc4sc5c(c34)CCN(C(=O)/C=C/CN3CCC(O)C(C)(C)C3)C5)cc2C)cn1` (stereo not shown) [Compound 114] had a pEC50 in assay [1] of more than 7.00. On EGFR, the negative logarithm of the EC50 (pEC50) is 6.00 to 7.00; the “Selectivity A431 EC50/BT474 EC50” value is “B (B: ≥ 20 and < 100)”; the “Selectivity A431 EC50/HEKYVMA EC50” value was “B (B: ≥ 20 and < 100)”.
In the case of `Cc1cc(Nc2ncnc3sc4c(c23)CN(C(=O)/C=C/CN(C)C)C4)ccc1Oc1ccc2ncnn2c1` [Compound 111, (E)-1-(4-((4-([1,2,4]Triazolo[1,5-a]pyridin-6-yloxy)-3-methylphenyl)amino)-5H-pyrrolo[3′,4′:4,5]thieno[2,3-d]pyrimidin-6(7H)-yl)-4-(dimethylamino)but-2-en-1-one], in assay [1], the negative-log EC50 (pEC50) was more than 7.00. Moreover, at EGFR, the pEC50 was 5.00 to 6.00; the “Selectivity A431 EC50/BT474 EC50” value was “A (A: ≥100)”; the “Selectivity A431 EC50/HEKYVMA EC50” value is “B (B: ≥ 20 and < 100)”.
For the compound `Cc1cc(Nc2ncnc3sc4c(c23)CN(C(=O)/C=C/CN(C)C)C4)ccc1Oc1ccn2ncnc2c1` [Compound 130, (E)-1-(4-((4-([1,2,4]Triazolo[1,5-a]pyridin-7-yloxy)-3-methylphenyl)amino)-5H-pyrrolo[3′,4′:4,5]thieno[2,3-d]pyrimidin-6(7H)-yl)-4-(dimethylamino)but-2-en-1-one], the pEC50 in assay [1] was more than 7.00. In addition, on EGFR, the pEC50 is 5.00 to 6.00, the “Selectivity A431 EC50/BT474 EC50” value was “A (A: ≥100)” and the “Selectivity A431 EC50/HEKYVMA EC50” value is reported as “A (A: ≥100)”.
As to `Cc1ccc(Oc2ccc(Nc3ncnc4sc5c(c34)CCN(C(=O)/C=C/CN3CCC[C@H](n4cccn4)C3)C5)cc2C)cn1` [Compound 112], the negative-log EC50 (pEC50) in assay [1] was more than 7.00. Besides, on EGFR, the negative-log EC50 (pEC50) is 6.00 to 7.00; the “Selectivity A431 EC50/BT474 EC50” value was “B (B: ≥ 20 and < 100)”; the “Selectivity A431 EC50/HEKYVMA EC50” value was “C (C: ≥ 10 and < 20)”.
As for `Cc1ccc(Oc2ccc(Nc3ncnc4sc5c(c34)CCN(C(=O)/C=C/CN3CCCCC3(C)CO)C5)cc2C)cn1` (stereo not shown) [Compound 119], the pEC50 in assay [1] is more than 7.00. Also, at EGFR, the pEC50 is 6.00 to 7.00; the “Selectivity A431 EC50/BT474 EC50” value was “B (B: ≥ 20 and < 100)”; the “Selectivity A431 EC50/HEKYVMA EC50” value is “B (B: ≥ 20 and < 100)”.
With `CCN(CC)C/C=C/C(=O)N1CCc2c(sc3ncnc(Nc4ccc(Oc5ccc(OC)nc5)c(C)c4)c23)C1` [Compound 137], the pEC50 in assay [1] is more than 7.00. In addition, at EGFR, the pEC50 is 6.00 to 7.00; the “Selectivity A431 EC50/BT474 EC50” value is “D (D: ≥ 5 and < 10)”; the “Selectivity A431 EC50/HEKYVMA EC50” value was “D (D: ≥ 5 and < 10)”.
With `Cc1ccc(Oc2ccc(Nc3ncnc4sc5c(c34)CCN(C(=O)/C=C/CN3CC(C)(C)OC(C)(C)C3)C5)cc2C)cn1` [Compound 121], the pEC50 in assay [1] was more than 7.00. Besides, at EGFR, the negative logarithm of the EC50 (pEC50) is 5.00 to 6.00; the “Selectivity A431 EC50/BT474 EC50” value is “B (B: ≥ 20 and < 100)”; the “Selectivity A431 EC50/HEKYVMA EC50” value was “C (C: ≥ 10 and < 20)”.
With `Cc1ccc(Oc2ccc(Nc3ncnc4sc5c(c34)CCN(C(=O)/C=C/CN3CCC[C@@H](CO)C3)C5)cc2C)cn1` [Compound 154], the negative-log EC50 (pEC50) in assay [1] was more than 7.00. Besides, at EGFR, the pEC50 is more than 7.00; the “Selectivity A431 EC50/BT474 EC50” value is “C (C: ≥ 10 and < 20)”; the “Selectivity A431 EC50/HEKYVMA EC50” value was “E (E: >1 and < 5)”.
`C=CC(=O)N1Cc2sc3ncnc(Nc4ccc(Oc5ccc(C)nc5)c(C)c4)c3c2C(C)C1` (stereo not shown) [Compound 142, 1-(5-methyl-4-((3-methyl-4-((6-methylpyridin-3-yl)oxy)phenyl)amino)-5,6-dihydropyrido[4′,3′:4,5]thieno[2,3-d]pyrimidin-7(8H)-yl)prop-2-en-1-one] gave a pEC50 in assay [1] of more than 7.00. Also, on EGFR, the pEC50 is 6.00 to 7.00; the “Selectivity A431 EC50/BT474 EC50” value was “B (B: ≥ 20 and < 100)”; the “Selectivity A431 EC50/HEKYVMA EC50” value is “B (B: ≥ 20 and < 100)”.
On to `Cc1cc(Nc2ncnc3sc4c(c23)CCN(C(=O)/C=C/CN(C)C)C4)ccc1Oc1ccc2nccn2c1` [Compound 109, (E)-4-(dimethylamino)-1-(4-((4-(imidazo[1,2-a]pyridin-6-yloxy)-3-methylphenyl)amino)-5,6-dihydropyrido[4′,3′:4,5]thieno[2,3-d]pyrimidin-7(8H)-yl)but-2-en-1-one], for which the pEC50 in assay [1] is more than 7.00. Also, on EGFR, the pEC50 was 6.00 to 7.00; the “Selectivity A431 EC50/BT474 EC50” value was “D (D: ≥ 5 and < 10)”; the “Selectivity A431 EC50/HEKYVMA EC50” value is “E (E: >1 and < 5)”.
`COc1ccc(Oc2ccc(Nc3ncnc4sc5c(c34)C(C)CN(C(=O)/C=C/CN(C)C)C5)cc2C)cn1` (stereo not shown) [Compound 152, (E)-4-(dimethylamino)-1-(4-((4-((6-methoxypyridin-3-yl)oxy)-3-methylphenyl)amino)-5-methyl-5,8-dihydropyrido[4′,3′:4,5]thieno[2,3-d]pyrimidin-7(6H)-yl)but-2-en-1-one] had a pEC50 in assay [1] of more than 7.00. Also, on EGFR, the pEC50 was 6.00 to 7.00; the “Selectivity A431 EC50/BT474 EC50” value was “C (C: ≥ 10 and < 20)”; the “Selectivity A431 EC50/HEKYVMA EC50” value was “C (C: ≥ 10 and < 20)”.
With `Cc1ccc(Oc2ccc(Nc3ncnc4sc5c(c34)CCN(C(=O)/C=C/CN3CC[C@H](F)C3)C5)cc2C)cn1` [Compound 124], the pEC50 in assay [1] is more than 7.00. On EGFR, the negative-log EC50 (pEC50) was more than 7.00; the “Selectivity A431 EC50/BT474 EC50” value was “B (B: ≥ 20 and < 100)”; the “Selectivity A431 EC50/HEKYVMA EC50” value was “C (C: ≥ 10 and < 20)”.
In the case of `O=C(/C=C/CN1CCOCC1)N1CCc2c(sc3ncnc(Nc4ccc(Oc5ccc6ncnn6c5)c(Cl)c4)c23)C1` [Compound 18], the pEC50 in assay [1] was more than 7.00. At EGFR, the negative-log EC50 (pEC50) is 6.00 to 7.00; the “Selectivity A431 EC50/BT474 EC50” value is “B (B: ≥ 20 and < 100)”; the “Selectivity A431 EC50/HEKYVMA EC50” value was “B (B: ≥ 20 and < 100)”.
In turn, `COc1ccc(Oc2ccc(Nc3ncnc4sc5c(c34)CCN(C(=O)/C=C/CN3CC[C@H](CO)C3)C5)cc2C)cn1` [Compound 140] had a negative-log EC50 (pEC50) in assay [1] of more than 7.00. Moreover, at EGFR, the pEC50 is 6.00 to 7.00; the “Selectivity A431 EC50/BT474 EC50” value was “B (B: ≥ 20 and < 100)”; the “Selectivity A431 EC50/HEKYVMA EC50” value was “C (C: ≥ 10 and < 20)”.
In assay [1], `Cc1cc(Nc2ncnc3sc4c(c23)CCN(C(=O)/C=C/CN(C)C)CC4)ccc1Oc1ccn2ncnc2c1` [Compound 168] showed a pEC50 of more than 7.00. Besides, on EGFR, the negative logarithm of the EC50 (pEC50) was 5.00 to 6.00; the “Selectivity A431 EC50/BT474 EC50” value is reported as “A (A: ≥100)”; the “Selectivity A431 EC50/HEKYVMA EC50” value was “B (B: ≥ 20 and < 100)”.

For the origin of these results see US20240391931A1 (Bristol-Myers Squibb Company, priority 2021, published 2024).
